Test results: patent publication US20230265438A1, “NUCLEIC ACIDS FOR INHIBITING EXPRESSION OF CNNM4 IN A CELL” (ASOCIACIÓN CENTRO DE INVESTIGACIÓN COOPERATIVA EN …, priority 2020, published 2023)
{VP} = (E)-vinylphosphonate; m = 2'-O-methyl; f = 2'-fluoro

What was measured:
CNNM4 mRNA [1] = assay: CNNM4 mRNA in liver of wild-type mice after single subcutaneous dose (Examples 12-14); assay type: in vivo, mouse; conditions: wild-type C57BL/6 mice
Method: (§1) Five- to seven-week old male C57BL/6 mice were treated with a single dose of 1 or 5 mg siRNA conjugate per kg body weight by subcutaneous injection. Control groups received a subcutaneous injection with the vehicle PBS. Two weeks after the treatment, liver samples were collected from all mice and snap frozen. RNA was extracted from liver samples and CNNM4 and Actin mRNA levels were determined by Taqman qRT-PCR. Values obtained for CNNM4 mRNA were normalized to values generated for the housekeeping gene Actin and related to mean of untreated sample (ut) set at 1-fold target gene expression. Each bar represents mean value from 6 animals +/-SD.
Five- to seven-week old male C57BL/6 mice were treated with a single dose of 0.3 or 1 mg siRNA conjugate per kg body weight by subcutaneous injection. Control groups received a subcutaneous injection with the vehicle PBS. Two weeks after the treatment, liver samples were collected from all mice and snap frozen. RNA was extracted from liver samples and CNNM4 and Actin mRNA levels were determined by Taqman qRT-PCR. Values obtained for CNNM4 mRNA were normalized to values generated for the housekeeping gene Actin and related to mean of untreated sample (ut) set at 1-fold target gene expression. Each bar represents mean value from 6 animals +/-SD.
as §1, with “1” for “1 or 5”, “Five” for “Two”, “PBS treated cohort (PBS)” for “untreated sample (ut)”

CNNM4 mRNA [2] = assay: CNNM4 mRNA in liver of DIO-NASH mice (Example 24); assay type: in vivo, mouse; conditions: 1 mg/kg or 5 mg/kg s.c. at 4, 8 and 12 weeks, liver 4 weeks after last treatment, FIG. 30
Method: 5-week old C57BL/6 male mice were maintained on a DIO-NASH diet for about 32 weeks and randomized based on pre-liver biopsy fibrosis and steatosis score. Only animals with fibrosis score of ≥ 1 and steatosis score of ≥ 2 were included in the study. Animals were then maintained on DIO-NASH diet for another 16 weeks. At the 4 week, 8 week, and 12 week time points after the pre liver biopsy mice were treated with 1 mg/kg or 5 mg/kg EU422, respectively or with the vehicle PBS by subcutaneous injection. 4 weeks after the last treatment, liver samples were collected from all mice and snap frozen. RNA was extracted from liver samples and CNNM4 and HPRT mRNA levels were determined by Taqman qRT-PCR. Values obtained for CNNM4 mRNA were normalized to values generated for the house keeping gene HPRT and related to mean of untreated sample (ut) set at 1-fold target gene expression. Each bar represents mean value from 15 animals +/-SD.

EU422: CNNM4 siRNA conjugate, duplex EU422A/EU422B; consists of SEQ ID NO: 461 and SEQ ID NO: 462 (chain 1 UGACAAAAGACACAAGAGU; chain 2 ACUCUUGUGUCUUUUGUCA; chain 1: sugars from the 5' end mfmfmfmfmfmfmfmfmfm, 5' {VP}, backbone not given here; chain 2: sugars from the 5' end m6 f3 m10, backbone not given here; undefined (ps2) end linkages, 5' conjugate ST23/ST41 on second strand, further chemistry not fully specified)
CNNM4 mRNA levels in the liver (CNNM4 mRNA [1]; five weeks after single dose of 1 mg/kg s.c., FIG. 20): reduction of CNNM4 mRNA levels | CNNM4 mRNA levels in the liver (CNNM4 mRNA [1]; two weeks after single dose of 0.3 or 1 mg/kg s.c., FIG. 19): reduction of CNNM4 mRNA levels | CNNM4 mRNA levels in the liver (CNNM4 mRNA [2]): dose dependent reduction of CNNM4 mRNA levels
